Test results as given in ChEMBL document CHEMBL1151124, “Photodiode Array Detection and Structures of Griseolic Acid Analogues from Culture Broth” (J Nat Prod, 1988).
Active and inactive are the calls of the source. The rule behind the calls is not given here.

assay: Inhibition of cAMP-specific 3',5'-cyclic phosphodiesterase

Activity | Compound
inactive | Nc1ncnc2c1ncn2[C@@H]1O[C@H](C[C@@H](CC(=O)O)C(=O)O)[C@@H](O)[C@H]1O
Active | Nc1ncnc2c1ncn2[C@@H]1O[C@@H]2C[C@](CC(=O)O)(C(=O)O)O[C@H]2[C@H]1O
Active | Nc1ncnc2c1ncn2[C@@H]1OC2=C[C@@](C(=O)O)(C(O)C(=O)O)O[C@H]2[C@H]1O (some centres undefined)
Active | Nc1ncnc2c1ncn2[C@@H]1OC2=C[C@](CC(=O)O)(C(=O)O)O[C@H]2[C@H]1O
